One assay deals with T1, full-length human AR (Homo sapiens, UniProt P10275).
T1 construct: expression vector encoding full-length human AR; expressed in transfected cells; host or cells: HEK293 (hAR/HEK293 cells)
T1 sequence (P10275 1-920): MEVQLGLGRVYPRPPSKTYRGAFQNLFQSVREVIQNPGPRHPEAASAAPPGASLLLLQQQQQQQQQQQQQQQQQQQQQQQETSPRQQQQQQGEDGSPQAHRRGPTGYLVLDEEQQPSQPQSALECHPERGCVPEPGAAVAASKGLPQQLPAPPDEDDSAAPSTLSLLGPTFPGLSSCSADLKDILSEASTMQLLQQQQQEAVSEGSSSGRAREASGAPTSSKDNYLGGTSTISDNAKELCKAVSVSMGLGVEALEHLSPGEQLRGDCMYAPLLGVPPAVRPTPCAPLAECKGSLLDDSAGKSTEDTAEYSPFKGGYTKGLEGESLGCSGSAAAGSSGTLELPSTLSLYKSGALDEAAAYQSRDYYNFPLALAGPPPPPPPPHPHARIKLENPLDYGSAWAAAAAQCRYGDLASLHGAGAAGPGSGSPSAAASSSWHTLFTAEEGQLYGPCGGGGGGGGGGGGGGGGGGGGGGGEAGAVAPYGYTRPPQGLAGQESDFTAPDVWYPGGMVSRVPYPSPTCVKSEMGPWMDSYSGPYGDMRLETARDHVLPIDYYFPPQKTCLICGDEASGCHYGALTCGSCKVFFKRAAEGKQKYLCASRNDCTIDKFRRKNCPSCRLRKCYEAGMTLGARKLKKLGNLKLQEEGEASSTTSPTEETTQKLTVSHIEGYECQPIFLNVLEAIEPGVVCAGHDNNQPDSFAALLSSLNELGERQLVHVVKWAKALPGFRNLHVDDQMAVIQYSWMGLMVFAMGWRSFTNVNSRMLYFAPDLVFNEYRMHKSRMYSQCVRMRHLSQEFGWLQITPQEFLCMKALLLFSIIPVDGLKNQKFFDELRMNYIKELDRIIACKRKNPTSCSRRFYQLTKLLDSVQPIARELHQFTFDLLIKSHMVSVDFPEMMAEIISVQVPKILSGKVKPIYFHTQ
The assay is described as follows: AR antagonism, reporter gene assay in hAR/HEK293 cells. To be noted: HEK293 cells stably transfected with full-length human AR and androgen responsive luciferase reporter; co-treated with submaximal testosterone (usually 0.45 nM); 1% DMSO; triplicates. The assay is classed as cell-based. The method, then:
Antagonism of test compounds for AR was measured by reporter gene assay in human embryonic kidney (HEK293) cells stably transfected with an expression vector encoding full-length human AR and androgen responsive luciferase reporter gene construct (hAR/HEK293 cells). To determine antagonism for hAR, the cells were treated simultaneously with increasing concentrations of the test compound and submaximal concentration of testosterone (usually 0.45 nM). The final DMSO concentration was 1%. All test compounds were studied in triplicates. The cells were incubated for […] before measurement of luciferase activity using Luciferase Assay System (Promega Corporation).
Background: Reporter assays use an easily measured gene product as a stand-in for the process of interest.

A further assay deals with T2, 17,20 lyase (CYP17) (Homo sapiens, UniProt P05093).
T2 construct: endogenous in cells; host or cells: H295R human adrenocortical carcinoma cells
T2 sequence (P05093 1-508): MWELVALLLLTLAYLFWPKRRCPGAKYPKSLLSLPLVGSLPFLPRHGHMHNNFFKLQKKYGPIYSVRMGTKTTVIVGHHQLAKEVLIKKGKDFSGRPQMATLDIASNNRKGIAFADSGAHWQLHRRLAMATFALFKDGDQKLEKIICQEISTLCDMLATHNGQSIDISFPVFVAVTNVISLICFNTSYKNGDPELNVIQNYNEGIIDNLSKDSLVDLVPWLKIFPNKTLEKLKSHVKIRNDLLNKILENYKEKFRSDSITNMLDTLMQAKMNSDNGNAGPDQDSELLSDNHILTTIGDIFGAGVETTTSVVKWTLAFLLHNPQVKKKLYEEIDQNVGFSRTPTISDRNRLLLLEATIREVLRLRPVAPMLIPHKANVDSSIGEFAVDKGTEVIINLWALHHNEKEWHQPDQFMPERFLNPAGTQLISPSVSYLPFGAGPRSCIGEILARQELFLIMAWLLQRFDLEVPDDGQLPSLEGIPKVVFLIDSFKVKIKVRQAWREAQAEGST
The assay is described as follows: 17,20 lyase (CYP17) inhibition, acetic acid release assay (AARA) on H295R cells. The assay is classed as cell-based. The method, then: The ability of the test compounds to inhibit 17,20 lyase catalysed conversion of 17α-hydroxypregnenolone to dehydroepiandrosterone and acetic acid was measured by acetic acid release assay (AARA) on human H295R adrenocortical carcinoma cell line (Grigoryev, D. N. et al., Analytical Biochemistry 1999; 267:319-330). […] The final DMSO concentration was 1%. Cell culture medium was extracted with dextran-coated charcoal suspension (Isomaa, V. et al., Endocrinology 1982; 111(3):833-843). ^3H-acetic acid was determined by mixing 100 μl of supernatant fraction in 200 μl of scintillation fluid (OptiPhase SuperMix, Perkin Elmer). Radioactivity was measured using a Microbeta scintillation counter (1450 MicroBeta Trilux, Wallac). All the test compounds were studied in quadruplicates.

Where [1] appears, read: human H295R adrenocortical carcinoma cells, overnight (16-19 h) with 17α-[21-3H]hydroxypregnenolone, 3H-acetic acid release, 1% DMSO, quadruplicates, read-out: CYP17 inhibition IC50.

Read-outs that look alike come from different tables or passages of the source.

`CCN(c1ccc(C#N)c(C(F)(F)F)c1)C1CC=C(c2cncn2C2CC2)C1` (racemic) [Ex. 53, 4-((3-(1-Cyclopropyl-1H-imidazol-5-yl)cyclopent-3-enyl)(ethyl)amino)-2-(trifluoromethyl)benzonitrile]: the IC50 at full-length human AR was determined as 57 nM; on 17,20 lyase (CYP17), 19 nM. As for `CN(c1ccc(C#N)c(C(F)(F)F)c1)C1C=C(n2ccnc2)CCC1(C)C` (racemic) [Ex. 130 racemate, 4-{[3-(1H-Imidazol-1-yl)-6,6-dimethylcyclohex-2-enyl](methyl)amino}-2-(trifluoromethyl)benzonitrile], the figures for the IC50 at full-length human AR and on 17,20 lyase (CYP17) (setting [1]) were 65 nM and 14 nM, respectively. Regarding `CCn1cncc1C1=CCC(N(CC2CC2)c2ccc(C#N)c(C(F)(F)F)c2)C1` (racemic) [Ex. 226 racemate, 4-((Cyclopropylmethyl)(3-(1-ethyl-1H-imidazol-5-yl)cyclopent-3-en-1-yl)-amino)-2-(trifluoromethyl)benzonitrile], the IC50 on full-length human AR worked out at 29 nM; at 17,20 lyase (CYP17), 43 nM. In the case of `CCN(c1ccc(C#N)c(Cl)c1)C1CC=C(c2cncn2CC)C1` (racemic) [Ex. 227 racemate, 2-Chloro-4-(ethyl(3-(1-ethyl-1H-imidazol-5-yl)cyclopent-3-en-1-yl)amino)-benzonitrile], the IC50 on full-length human AR is 57 nM; on 17,20 lyase (CYP17), 19 nM. Regarding `CCN(c1ccc(C#N)c(C(F)(F)F)c1)[C@H]1CCC[C@@H](c2ccncc2)C1` (relative stereo) [Ex. 61, cis-4-(Ethyl(3-(pyridin-4-yl)cyclohexyl)amino)-2-(trifluoromethyl)benzonitrile], the IC50 on full-length human AR stood at 35 nM; on 17,20 lyase (CYP17), 108 nM. Regarding `CN(c1ccc(C#N)c(C(F)(F)F)c1)[C@@H]1C=C(n2ccnc2)[C@H](O)CC1(C)C` (relative stereo) [Ex. 236, Cis-4-((4-hydroxy-3-(1H-imidazol-1-yl)-6,6-dimethylcyclohex-2-enyl)-(methyl)amino)-2-(trifluoromethyl)benzonitrile], the IC50 was found to be 124 nM at full-length human AR and 247 nM against 17,20 lyase (CYP17). On the same counts, the results for `CCN(c1ccc(C#N)c(Cl)c1C)C1CCCC(n2ccnc2)C1` (single isomer, unassigned) [Ex. 13, 4-((3-(1H-imidazol-1-yl)cyclohexyl)(ethyl)amino)-2-chloro-3-methylbenzonitrile] are 60 nM and 92 nM. The like results for `CCN(c1ccc(C#N)c(C(F)(F)F)c1)C1CC(n2ccnc2)CCC1(C)C` (single isomer, unassigned) [Ex. 46 cis-enantiomer 2, 4-((5-(1H-Imidazol-1-yl)-2,2-dimethylcyclohexyl)(ethyl)amino)-2-(trifluoromethyl)benzonitrile] were, in that order, 40 nM and 49 nM. On the same counts, the results for `CCN(c1ccc(C#N)c(C(F)(F)F)c1)C1CC=C(c2cncn2C(C)C)C1` (single isomer, unassigned) [Ex. 51 enantiomer 2, 4-(Ethyl(3-(1-isopropyl-1H-imidazol-5-yl)cyclopent-3-enyl)amino)-2-(trifluoromethyl)benzonitrile] are 17 nM and 166 nM. As to `CCN(c1ccc(C#N)c(C(F)(F)F)c1)C1CCC(n2ccnc2)C1` (single isomer, unassigned) [Ex. 86 trans-enantiomer 1, 4-((-3-(1H-imidazol-1-yl)cyclopentyl)(ethyl)amino)-2-(trifluoromethyl)benzonitrile], the values for the IC50 on full-length human AR and on 17,20 lyase (CYP17) were 73 nM and 27 nM, respectively. Take `Cc1nc(N(C)C2C=C(n3ccnc3)CCC2(C)C)ccc1[N+](=O)[O-]` (single isomer, unassigned) [Ex. 203 enantiomer 1, N-[3-(1H-Imidazol-1-yl)-6,6-dimethylcyclohex-2-enyl]-N,6-dimethyl-5-nitropyridin-2-amine]: the IC50 on full-length human AR was 17 nM; on 17,20 lyase (CYP17) (setting [1]), 16 nM. As for `CCN(c1ccc(C#N)c(C(F)(F)F)c1)C1CC=C(c2cnco2)C1` (single isomer, unassigned) [Ex. 233 enantiomer 1, 4-(Ethyl(3-(oxazol-5-yl)cyclopent-3-enyl)amino)-2-(trifluoromethyl)benzonitrile], the figures for the IC50 on full-length human AR and on 17,20 lyase (CYP17) were 59 nM and 66 nM, respectively. Regarding `CN(c1ccc(C#N)c(C(F)F)c1)C1C=C(n2ccnc2)CCC1(C)C` (single isomer, unassigned) [Ex. 240(b), 4-((3-(1H-imidazol-1-yl)-6,6-dimethylcyclohex-2-enyl)(methyl)amino)-2-(difluoromethyl)benzonitrile (pure enantiomer)], the results for the IC50 on full-length human AR and at 17,20 lyase (CYP17) (setting [1]) were 52 nM and 33 nM, respectively.

With `CCN(c1ccc(C#N)c(C(F)(F)F)c1)C1CC(CO)=C(n2ccnc2)C1(C)C` (single isomer, unassigned) [Ex. 270 enantiomer 1, 4-(Ethyl(4-(hydroxymethyl)-3-(1H-imidazol-1-yl)-2,2-dimethylcyclopent-3-en-1-yl)amino)-2-(trifluoromethyl)benzonitrile], the IC50 on full-length human AR is 56 nM; on 17,20 lyase (CYP17) it was 321 nM. Turning to `CCN(c1ccc(C#N)c(C(F)(F)F)c1)C1CCC=C(c2c[nH]cn2)C1(C)C` (stereo not shown) [Ex. 100, 4-((3-(1H-imidazol-4-yl)-2,2-dimethylcyclohex-3-en-1-yl)(ethyl)amino)-2-(trifluoromethyl)benzonitrile], at 17,20 lyase (CYP17) (setting [1]), the IC50 turned out to be 36 nM. Regarding `CCN(c1ccc(C#N)c(Cl)c1)C1CC=C(c2c[nH]cn2)C1` (stereo not shown) [Ex. 133, 4-((3-(1H-Imidazol-4-yl)cyclopent-3-en-1-yl)(ethyl)amino)-2-chlorobenzonitrile], at 17,20 lyase (CYP17) (setting [1]), the IC50 was 7 nM. With `CCN(c1ccc(C#N)c(C(F)(F)F)c1)C1CC=C(c2c[nH]cn2)C1` (stereo not shown) [Ex. 150, 4-((3-(1H-imidazol-4-yl)cyclopent-3-en-1-yl)(ethyl)amino)-2-(trifluoromethyl)benzonitrile], the IC50 on 17,20 lyase (CYP17) (setting [1]) stood at 17 nM.

In the case of `CCN(c1ccc(C#N)c(C(F)(F)F)c1)C1CCC(c2cnc[nH]2)C1` (stereo not shown) [Ex. 219, 4-((3-(1H-imidazol-5-yl)cyclopentyl)(ethyl)amino)-2-(trifluoromethyl)-benzonitrile], the IC50 on 17,20 lyase (CYP17) (setting [1]) came to 105 nM. On the same count and under the same terms, then `CN(c1ccc(C#N)c(C(F)(F)F)c1)C1C=C(c2cncn2CCOCc2ccccc2)CCC1(C)C` (stereo not shown) [Ex. 220, 4-((3-(1-(2-(benzyloxy)ethyl)-1H-imidazol-5-yl)-6,6-dimethylcyclohex-2-en-1-yl)(methyl)amino)-2-(trifluoromethyl)benzonitrile], with 10 nM; and `CCN(c1ccc(C#N)c(C(F)(F)F)c1)C1CCCC(c2cnc[nH]2)C1` (stereo not drawn) [Ex. 224 cis-diasteromer, 4-((3-(1H-imidazol-5-yl)cyclohexyl)(ethyl)amino)-2-(trifluoromethyl)benzonitrile], with 59 nM.

By IC50 is commonly meant the midpoint of a concentration-inhibition curve.

(Values after US9890139B2, “CYP17 inhibitors/antiandrogens” (Orion Corporation, priority 2013, dated 2018).)
